Data published in patent US20090208508A1, “NOVEL USE OF UBIQUITIN C-TERMINAL HYDROLASE-L1” (SK CORPORATION, priority 2005, published 2009).

Assays:
UCH-L1 [1] = assay: Western blotting of UCH-L1 expression in B16F10 stable cells expressing UCH-L1 specific RNAi (lentivirus); type: cell-based, mouse; conditions: Zeocin-selected, in comparison with normal B16F10 cells and cells expressing irrelevant RNAi (SEQ ID No. 3)
Experimental: The expression level of UCH-L1 in B16F10 mouse melanoma cell line was analyzed by using the Western blotting with anti-UCH-L1 antibody in comparison with that of H157 lung cancer cell line overexpressing UCH-L1. It was determined that UCH-L1 is expressed also in B16F10 cell lines.
B16F10 cells (2.5×10^5 cells, 70˜80% confluency) were seeded on the cell culture dish. After 24 h, these cells were infected with 1 mL of lentivirus (VCA™, Vectorcorea, Inc., Seoul, Korea) expressing irrelevant RNAi or UCH-L1 specific RNAi. 500 μL ( ? ) (virus titer 1[…]10^7 IFU/mL) of lentivirus expressing the sequence specific shRNAi (SEQ ID Nos. 3, 8, 9, and 10) was used for infection of 2.5×10^5 of B16F10 cells.
Polyburene ([…]) was added thereto, then the cell culture dish was shaken slowly up and down. After incubation for 6 h at 37[…] under 5% CO2, the virus soup was changed with the RPMI-1640 supplemented with 10% FBS. B16F10 cells were infected at twice with lentivirus on 24th hour after the first infection. However the incubation time for second infection was 12 h, not 6 h. After 24 h from the second infection, B16F 10 cells were harvested with trypsin and subcultured on the other dish by diluting the cells with RPMI-1640 (1/16 dilution).
After 24 h, cells were maintained with the cell culture media with 5 μg/mL of Zeocin. For about 14 days, the cell culture media was changed with fresh media containing same amount of Zeocin every three days. On 14th day after start of selection with Zeocin, only cells having the resistance to Zeocin were survival and these cells were infected with lentivirus stably expressing UCH-L1 specific RNAi (shRNAi, short hairpin RNA). On 14th day after start of selection with Zeocin, the colony was formed by the cells having the resistance to Zeocin. The colonized cells were selected and re-subcultured with fresh media. From this method, we could prepare UCH-L1 expression reduced stable cell lines. […]

UCH-L1 [2] = assay: Preliminary experiments: UCH-L1 expression level with siRNA on mouse-base sequences; type: cell-based
[3] = test system: B16F10 mouse melanoma cells; assay: Experimental pulmonary metastasis: B16F10 stable cells injected into tail vein, black colonies on lung surface counted; type: in vivo, BALB/C nude mouse; conditions: 1x10^6 cells single-injected into tail vein, 14th day after injection, vs control B16F10 cells expressing irrelevant RNAi
Experimental: We tried to elucidate whether UCH-L1 is a key target molecule related to cancer metastasis through the experimental metastasis using animal model. Normal B16F10 mouse melanoma cells are highly invasive and its first target organ in metastatic process is lung. Using lentivirus-based system, we prepared the B16F10 stable cells in which UCH-L1 was knock-downed.
After preparing B16F10 stable cells, we examined whether the metastasis to lung was decreased when the B16F 10 stable cells were injected intravenously into the tail vein.
As stated above, after the UCH-L1 expression knock-downed B 16F 10 stable cells were selected with Zeocin, these cells (1[…]10^6 cells) were single-injected into the tail vein of BALB/C nude mouse. On 14th day after injection, the metastasis to lung was investigated. (For control set, BALB/C mouse were injected with same amount of B16F10 stable cells expressing irrelevant RNAi (control lentiviral vector))

UCH-L1 [4] = assay: Preliminary experiments: UCH-L1 expression level with siRNA on human-base sequences; type: cell-based

ha: UCH-L1 specific shRNAi (SEQ ID No. 8), target sequence common to human and mouse, expressed by lentivirus (guide CCCGAGATGCTGAACAAAG; listed as Homo sapiens)
expression of UCH-L1 (Western blotting) (UCH-L1 [1]): reduced | expression level of UCH-L1 (UCH-L1 [2]): effectively reduced | reduction of metastasis to lung (black spherical colonies on lung surface) [3]: 92% | expression level of UCH-L1 (UCH-L1 [4]): effectively reduced

ma: UCH-L1 specific shRNAi (SEQ ID No. 9), mouse target sequence, expressed by lentivirus (guide AGCTGAAGCCGATGGAGATTA; listed as Mus musculus)
expression of UCH-L1 (Western blotting) (UCH-L1 [1]): not reduced

mb: UCH-L1 specific shRNAi (SEQ ID No. 10), mouse target sequence, expressed by lentivirus (guide CCTAAAGTTTACTTCATGAAG; listed as Mus musculus)
expression of UCH-L1 (Western blotting) (UCH-L1 [1]): reduced | expression level of UCH-L1 (UCH-L1 [2]): effectively reduced | reduction of metastasis to lung (black spherical colonies on lung surface) [3]: 62%
